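Values below derive from 48-hour exposures of cells grown in 96-well plates, with endpoints linearly interpolated between the two concentrations bracketing the appropriate inhibition level. At the GI50, growth is halved.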 Calls of active or inactive are those of the source. Rule as the data show it: active = GI50 up to about 1.1 µM and inactive = higher.
Experiments:
Experiment in all cases: NCI tumour cell line growth inhibition, 48 h
IGROV-1 = system: IGROV-1
A498 = system: A498
A549 = system: A549
SNB-75 = system: SNB-75
SK-MEL-2 = system: SK-MEL-2
SN12C = system: SN12C
SK-MEL-5 = system: SK-MEL-5
SF-295 = system: SF-295
HCT-15 = system: HCT-15
COLO 205 = system: COLO 205
ACHN = system: ACHN
UACC-62 = system: UACC-62
Malme-3M = system: Malme-3M
CCRF-CEM = system: CCRF-CEM
MDA-MB-231 = system: MDA-MB-231
HOP-92 = system: HOP-92
NCI-H522 = system: NCI-H522
K562 = system: K562
786-0 = system: 786-0
OVCAR-5 = system: OVCAR-5

Row | Structure (SMILES) | GI50 (IGROV-1) | GI50 (A498) | GI50 (A549) | GI50 (SNB-75) | GI50 (SK-MEL-2) | GI50 (SN12C) | GI50 (SK-MEL-5) | GI50 (SF-295) | GI50 (HCT-15) | GI50 (COLO 205) | GI50 (ACHN) | GI50 (UACC-62) | GI50 (Malme-3M) | GI50 (CCRF-CEM) | GI50 (MDA-MB-231) | GI50 (HOP-92) | GI50 (NCI-H522) | GI50 (K562) | GI50 (786-0) | GI50 (OVCAR-5)
1 | COc1ccc(CC2C(=O)NC(C)C(=O)N(C)C3C(=O)N(C)C(Cc4ccc(O)c(c4)Oc4ccc(cc4)C3O)C(=O)NC(C)C(=O)NC(C)C(=O)N2C)cc1 (stereo not given) | 0.0162 µM (active) | 0.022 µM (active) | 0.0353 µM (active) | 0.0137 µM (active) | 0.0125 µM (active) | 0.018 µM (active) | 0.00746 µM (active) | 0.0138 µM (active) | 0.658 µM | 0.0206 µM (active) | 0.0891 µM (active) | 0.0138 µM (active) | 0.0171 µM (active) | 0.0013 µM (active) | < 0.01 µM (active) | 0.0137 µM (active) | 0.0125 µM (active) | 0.0179 µM (active) | 0.015 µM (active) | 0.0303 µM (active)
2 | CC(NC1=CC(=O)c2cccnc2C1=O)C(O)c1ccccc1 (stereo not given) | 1.28 µM (inactive) | 3.62 µM (inactive) | 1.9 µM (inactive) | 1.35 µM (inactive) | 1.5 µM (inactive) | 1.38 µM (inactive) | 1.09 µM (active) | 1.28 µM (inactive) | 1.37 µM | 1.86 µM (inactive) | 2.05 µM (inactive) | 1.65 µM (inactive) | 1.48 µM (inactive) | 4.02 µM (inactive) | 2.52 µM (inactive) | 9.73 µM (inactive) | 1.42 µM (inactive) | 2.23 µM (inactive) | 2.79 µM (inactive) | 1.79 µM (inactive)
3 | O=C1Nc2cc(Cl)ccc2C(=O)N2CCC[C@@H]12 | > 100 µM (inactive) | > 100 µM (inactive) | > 100 µM (inactive) | > 100 µM (inactive) | > 100 µM (inactive) | > 100 µM (inactive) | > 100 µM (inactive) | > 100 µM (inactive) | > 100 µM | 57.1 µM (inactive) | > 100 µM (inactive) | > 100 µM (inactive) | > 100 µM (inactive) | > 100 µM (inactive) | > 100 µM (inactive) | > 100 µM (inactive) | 24.9 µM (inactive) | > 100 µM (inactive) | > 100 µM (inactive) | > 100 µM (inactive)
4 | O=C(Cn1c(=O)oc2ccc(C(=O)c3ccccc3Cl)cc21)c1ccc([N+](=O)[O-])cc1 | 23.6 µM (inactive) | 30.1 µM (inactive) | 25.2 µM (inactive) | 0.824 µM (active) | 20.4 µM (inactive) | 24.5 µM (inactive) | 16.3 µM (inactive) | 21.8 µM (inactive) | 17.7 µM | 20.6 µM (inactive) | 32.7 µM (inactive) | 12 µM (inactive) | 25.5 µM (inactive) | 4.29 µM (inactive) | 20.8 µM (inactive) | 27.5 µM (inactive) | 14.9 µM (inactive) | 14.9 µM (inactive) | 19.6 µM (inactive) | 47.6 µM (inactive)
5 | COc1cc2c(cc1OC)CC(=O)c1cc(OC)c(OC)cc1/C=C\2 | 10.8 µM (inactive) | > 12.5 µM (inactive) | > 12.5 µM (inactive) | 4.83 µM (inactive) | > 12.5 µM (inactive) | > 12.5 µM (inactive) | 7.74 µM (inactive) | 7.16 µM (inactive) | 5.85 µM | 11.1 µM (inactive) | > 12.5 µM (inactive) | > 12.5 µM (inactive) | 2.93 µM (inactive) | > 12.5 µM (inactive) | > 12.5 µM (inactive) | > 12.5 µM (inactive) | 9.44 µM (inactive) | 3.45 µM (inactive) | > 12.5 µM (inactive) | > 12.5 µM (inactive)
6 | CC1=CC(O)C(C(O)(C(F)(F)F)C(F)(F)F)C(C)(C)C1 (stereo not given) | 0.188 µM (active) | 0.0296 µM (active) | > 10 µM (inactive) | > 10 µM (inactive) | > 10 µM (inactive) | > 10 µM (inactive) | 0.0371 µM (active) | > 10 µM (inactive) | > 10 µM | > 10 µM (inactive) | > 10 µM (inactive) | > 10 µM (inactive) | > 10 µM (inactive) | > 10 µM (inactive) | > 10 µM (inactive) | > 10 µM (inactive) | > 10 µM (inactive) | > 10 µM (inactive) | < 0.001 µM (active) | > 10 µM (inactive)
7 | O=C(O)CN1CCNCCN(CC(=O)O)CC1 | 12.6 µM (inactive) | 3.42 µM (inactive) | 14.8 µM (inactive) | 12.3 µM (inactive) | 26.4 µM (inactive) | > 100 µM (inactive) | 5.48 µM (inactive) | > 69 µM (inactive) | 3.79 µM | 2.01 µM (inactive) | > 84.5 µM (inactive) | 12.6 µM (inactive) | 2.35 µM (inactive) | 5.47 µM (inactive) | > 34 µM (inactive) | 8.38 µM (inactive) | 3.28 µM (inactive) | 3.76 µM (inactive) | 5.48 µM (inactive) | > 22.1 µM (inactive)

From ChEMBL document CHEMBL1201862, “PubChem BioAssay data set” (2004)
